From the NIST ThermoML archive (doi:10.1021/je060271a)
Numbers after ± are expanded uncertainties.

Settings: Liquid, Vibrating tube method

**Q.** Which results are given for `CCCCCCCC(=O)OCC(COC(=O)CCCCCCC)(COC(=O)CCCCCCC)COC(=O)CCCCCCC` [pentaerythritol tetraoctanoate]?
**A.** mass density (323.15 K, 31267 kPa): 960.2 ± 1.2 kg/m3; mass density (323.15 K, 31296 kPa): 960.3 ± 1.2 kg/m3; mass density (323.15 K, 31325 kPa): 960.2 ± 1.2 kg/m3; mass density (323.15 K, 31360 kPa): 960.3 ± 1.2 kg/m3; mass density (323.15 K, 31389 kPa): 960.2 ± 1.2 kg/m3; mass density (323.15 K, 31418 kPa): 960.1 ± 1.2 kg/m3; mass density (323.15 K, 31452 kPa): 960.2 ± 1.2 kg/m3; mass density (323.15 K, 31481 kPa): 960.3 ± 1.2 kg/m3; mass density (323.15 K, 31510 kPa): 960.4 ± 1.2 kg/m3; mass density (323.15 K, 31540 kPa): 960.4 ± 1.2 kg/m3; mass density (323.15 K, 31575 kPa): 960.3 ± 1.2 kg/m3; mass density (323.15 K, 31604 kPa): 960.4 ± 1.2 kg/m3; mass density (323.15 K, 31640 kPa): 960.3 ± 1.2 kg/m3; mass density (323.15 K, 31669 kPa): 960.4 ± 1.2 kg/m3; mass density (323.15 K, 31699 kPa): 960.3 ± 1.2 kg/m3; mass density (323.15 K, 31731 kPa): 960.4 ± 1.2 kg/m3; mass density (323.15 K, 31761 kPa): 960.4 ± 1.2 kg/m3; mass density (323.15 K, 31785 kPa): 960.4 ± 1.2 kg/m3; mass density (323.15 K, 31827 kPa): 960.5 ± 1.2 kg/m3; mass density (323.15 K, 31856 kPa): 960.5 ± 1.2 kg/m3; mass density (323.15 K, 31892 kPa): 960.5 ± 1.2 kg/m3; mass density (323.15 K, 31922 kPa): 960.5 ± 1.2 kg/m3; mass density (323.15 K, 31952 kPa): 960.6 ± 1.2 kg/m3; mass density (323.15 K, 31987 kPa): 960.6 ± 1.2 kg/m3; mass density (323.15 K, 32018 kPa): 960.7 ± 1.2 kg/m3; mass density (323.15 K, 32048 kPa): 960.5 ± 1.2 kg/m3; mass density (323.15 K, 32084 kPa): 960.6 ± 1.2 kg/m3; mass density (323.15 K, 32115 kPa): 960.6 ± 1.2 kg/m3; mass density (323.15 K, 32147 kPa): 960.7 ± 1.2 kg/m3; mass density (323.15 K, 32178 kPa): 960.7 ± 1.2 kg/m3; mass density (323.15 K, 32208 kPa): 960.8 ± 1.2 kg/m3; mass density (323.15 K, 32244 kPa): 960.7 ± 1.2 kg/m3; mass density (323.15 K, 32275 kPa): 960.8 ± 1.2 kg/m3; mass density (323.15 K, 32305 kPa): 960.6 ± 1.2 kg/m3; mass density (323.15 K, 32343 kPa): 960.8 ± 1.2 kg/m3; mass density (323.15 K, 32374 kPa): 960.8 ± 1.2 kg/m3; mass density (323.15 K, 32404 kPa): 960.6 ± 1.2 kg/m3; mass density (323.15 K, 32442 kPa): 960.8 ± 1.2 kg/m3; mass density (323.15 K, 32467 kPa): 960.8 ± 1.2 kg/m3; mass density (323.15 K, 32504 kPa): 961 ± 1.2 kg/m3; mass density (323.15 K, 32542 kPa): 960.9 ± 1.2 kg/m3; mass density (323.15 K, 32574 kPa): 960.9 ± 1.2 kg/m3; mass density (323.15 K, 32605 kPa): 961 ± 1.2 kg/m3; mass density (323.15 K, 32642 kPa): 960.9 ± 1.2 kg/m3; mass density (323.15 K, 32706 kPa): 961 ± 1.2 kg/m3; mass density (323.15 K, 32744 kPa): 961.1 ± 1.2 kg/m3; mass density (323.15 K, 32776 kPa): 961.1 ± 1.2 kg/m3; mass density (323.15 K, 32838 kPa): 961.1 ± 1.2 kg/m3; mass density (323.15 K, 32877 kPa): 961.1 ± 1.2 kg/m3; mass density (323.15 K, 32909 kPa): 961 ± 1.2 kg/m3; mass density (323.15 K, 32941 kPa): 961.1 ± 1.2 kg/m3; mass density (323.15 K, 32980 kPa): 961 ± 1.2 kg/m3; mass density (323.15 K, 33012 kPa): 961.2 ± 1.2 kg/m3; mass density (323.15 K, 33050 kPa): 961.1 ± 1.2 kg/m3; mass density (323.15 K, 33083 kPa): 961.2 ± 1.2 kg/m3; mass density (323.15 K, 33115 kPa): 961.2 ± 1.2 kg/m3; mass density (323.15 K, 33147 kPa): 961.2 ± 1.2 kg/m3; mass density (323.15 K, 33186 kPa): 961.2 ± 1.2 kg/m3; mass density (323.15 K, 33219 kPa): 961.3 ± 1.2 kg/m3; mass density (323.15 K, 33258 kPa): 961.2 ± 1.2 kg/m3; mass density (323.15 K, 33291 kPa): 961.3 ± 1.2 kg/m3; mass density (323.15 K, 33324 kPa): 961.3 ± 1.2 kg/m3; mass density (323.15 K, 33363 kPa): 961.4 ± 1.2 kg/m3; mass density (323.15 K, 33396 kPa): 961.5 ± 1.2 kg/m3; mass density (323.15 K, 33429 kPa): 961.3 ± 1.2 kg/m3; mass density (323.15 K, 33470 kPa): 961.4 ± 1.2 kg/m3; mass density (323.15 K, 33503 kPa): 961.3 ± 1.2 kg/m3; mass density (323.15 K, 33536 kPa): 961.6 ± 1.2 kg/m3; mass density (323.15 K, 33576 kPa): 961.4 ± 1.2 kg/m3; mass density (323.15 K, 33610 kPa): 961.5 ± 1.2 kg/m3; mass density (323.15 K, 33644 kPa): 961.5 ± 1.2 kg/m3; mass density (323.15 K, 33685 kPa): 961.5 ± 1.2 kg/m3; mass density (323.15 K, 33720 kPa): 961.6 ± 1.2 kg/m3; mass density (323.15 K, 33755 kPa): 961.5 ± 1.2 kg/m3; mass density (323.15 K, 33797 kPa): 961.6 ± 1.2 kg/m3; mass density (323.15 K, 33833 kPa): 961.5 ± 1.2 kg/m3; mass density (323.15 K, 33870 kPa): 961.6 ± 1.2 kg/m3; mass density (323.15 K, 33916 kPa): 961.7 ± 1.2 kg/m3; mass density (323.15 K, 33952 kPa): 961.7 ± 1.2 kg/m3; mass density (323.15 K, 33982 kPa): 961.7 ± 1.2 kg/m3; mass density (323.15 K, 34010 kPa): 961.8 ± 1.2 kg/m3; mass density (323.15 K, 34034 kPa): 961.7 ± 1.2 kg/m3; mass density (323.15 K, 34058 kPa): 961.7 ± 1.2 kg/m3; mass density (323.15 K, 34086 kPa): 961.7 ± 1.2 kg/m3; mass density (323.15 K, 34110 kPa): 961.8 ± 1.2 kg/m3; mass density (323.15 K, 34134 kPa): 961.8 ± 1.2 kg/m3; mass density (323.15 K, 34159 kPa): 961.8 ± 1.2 kg/m3; mass density (323.15 K, 34188 kPa): 961.9 ± 1.2 kg/m3; mass density (323.15 K, 34213 kPa): 961.9 ± 1.2 kg/m3; mass density (323.15 K, 34242 kPa): 961.8 ± 1.2 kg/m3; mass density (323.15 K, 34268 kPa): 961.9 ± 1.2 kg/m3; mass density (323.15 K, 34294 kPa): 961.8 ± 1.2 kg/m3; mass density (323.15 K, 34321 kPa): 962.1 ± 1.2 kg/m3; mass density (323.15 K, 34354 kPa): 962 ± 1.2 kg/m3; mass density (323.15 K, 34382 kPa): 961.9 ± 1.2 kg/m3; mass density (323.15 K, 34411 kPa): 962 ± 1.2 kg/m3; mass density (323.15 K, 34448 kPa): 962.1 ± 1.2 kg/m3; mass density (323.15 K, 34472 kPa): 961.9 ± 1.2 kg/m3; mass density (323.15 K, 34473 kPa): 962 ± 1.2 kg/m3; mass density (323.15 K, 34474 kPa): 962 ± 1.2 kg/m3; mass density (323.16 K, 603.67 kPa): 941 ± 1.1 kg/m3; mass density (323.16 K, 875.73 kPa): 941.2 ± 1.1 kg/m3; mass density (323.16 K, 892.76 kPa): 941.2 ± 1.1 kg/m3; mass density (323.16 K, 910.31 kPa): 941.3 ± 1.1 kg/m3; mass density (323.16 K, 929.42 kPa): 941.3 ± 1.1 kg/m3; mass density (323.16 K, 952.34 kPa): 941.3 ± 1.1 kg/m3; mass density (323.16 K, 1561.9 kPa): 941.8 ± 1.1 kg/m3; mass density (323.16 K, 1605.8 kPa): 941.7 ± 1.1 kg/m3; mass density (323.16 K, 1638 kPa): 941.7 ± 1.1 kg/m3; mass density (323.16 K, 1659.1 kPa): 941.7 ± 1.1 kg/m3; mass density (323.16 K, 1674.9 kPa): 941.8 ± 1.1 kg/m3; mass density (323.16 K, 1688.1 kPa): 941.8 ± 1.1 kg/m3; mass density (323.16 K, 2395.8 kPa): 942.3 ± 1.1 kg/m3; mass density (323.16 K, 2562.1 kPa): 942.5 ± 1.2 kg/m3; mass density (323.16 K, 2571.5 kPa): 942.4 ± 1.1 kg/m3; mass density (323.16 K, 2579.5 kPa): 942.4 ± 1.1 kg/m3; mass density (323.16 K, 2587.6 kPa): 942.5 ± 1.2 kg/m3; mass density (323.16 K, 3525.4 kPa): 943 ± 1.2 kg/m3; mass density (323.16 K, 3596.1 kPa): 943.1 ± 1.2 kg/m3; mass density (323.16 K, 3609.1 kPa): 943.2 ± 1.2 kg/m3; mass density (323.16 K, 3622.8 kPa): 943.1 ± 1.2 kg/m3; mass density (323.16 K, 3638.9 kPa): 943.2 ± 1.2 kg/m3; mass density (323.16 K, 3652.2 kPa): 943.2 ± 1.2 kg/m3; mass density (323.16 K, 3663.5 kPa): 943.2 ± 1.2 kg/m3; mass density (323.16 K, 3682.5 kPa): 943.1 ± 1.2 kg/m3; mass density (323.16 K, 3696.6 kPa): 943.1 ± 1.2 kg/m3; mass density (323.16 K, 3864.6 kPa): 943.3 ± 1.2 kg/m3; mass density (323.16 K, 3879.5 kPa): 943.3 ± 1.2 kg/m3; mass density (323.16 K, 3913.1 kPa): 943.3 ± 1.2 kg/m3; mass density (323.16 K, 3928.7 kPa): 943.4 ± 1.2 kg/m3; mass density (323.16 K, 3945.2 kPa): 943.3 ± 1.2 kg/m3; mass density (323.16 K, 3960.6 kPa): 943.3 ± 1.2 kg/m3; mass density (323.16 K, 3976.2 kPa): 943.4 ± 1.2 kg/m3; mass density (323.16 K, 3991.8 kPa): 943.3 ± 1.2 kg/m3; mass density (323.16 K, 4010.5 kPa): 943.3 ± 1.2 kg/m3; mass density (323.16 K, 4025.5 kPa): 943.3 ± 1.2 kg/m3; mass density (323.16 K, 4044.2 kPa): 943.5 ± 1.2 kg/m3; mass density (323.16 K, 4061 kPa): 943.5 ± 1.2 kg/m3; mass density (323.16 K, 4225.4 kPa): 943.5 ± 1.2 kg/m3; mass density (323.16 K, 4242.4 kPa): 943.6 ± 1.2 kg/m3; mass density (323.16 K, 4245.7 kPa): 943.5 ± 1.2 kg/m3; mass density (323.16 K, 4456.7 kPa): 943.7 ± 1.2 kg/m3; mass density (323.16 K, 4480.6 kPa): 943.7 ± 1.2 kg/m3; mass density (323.16 K, 4501.4 kPa): 943.6 ± 1.2 kg/m3; mass density (323.16 K, 4587.3 kPa): 943.7 ± 1.2 kg/m3; mass density (323.16 K, 4633.2 kPa): 943.7 ± 1.2 kg/m3; mass density (323.16 K, 4694.8 kPa): 943.8 ± 1.2 kg/m3; mass density (323.16 K, 4742.6 kPa): 943.9 ± 1.2 kg/m3
